Data from ChEMBL document CHEMBL5523735 (J Med Chem, 2024).
Converted amounts (≈) assume the structure as drawn. The source made the active and inactive calls. No cut-off for these calls is given here.

Assays:
[1] = Tmax in Sprague-Dawley rat at 5 mg/kg, po; format: ADME, organism-based; settings: in vivo
Mus musculus [2] = experiment: Anti-colitis activity in C57BL/6 mouse model of DSS-induced colitis assessed as decrease in loose stools at 100 uM, REC for 7 days administered daily; format: functional, organism-based; settings: time 7.0 day
[3] = Metabolic stability in human liver microsomes measured for 90 mins; format: ADME, Microsome; settings: 1.5 h
[4] = AUC (all) in Sprague-Dawley rat at 5 mg/kg, po; format: ADME, organism-based; settings: in vivo
Mus musculus [5] = experiment: Anti-colitis activity in C57BL/6 mouse model of DSS-induced colitis assessed as decrease in endoscopic damage in colon at 100 uM, REC for 7 days administered daily; format: functional, organism-based; settings: time 7.0 day
Mus musculus [6] = experiment: Anti-colitis activity in C57BL/6 mouse model of DSS-induced colitis assessed as increase in body weight at 100 uM, REC for 7 days administered daily; format: functional, organism-based; settings: time 7.0 day
Mus musculus [7] = experiment: Anti-colitis activity in C57BL/6 mouse model of DSS-induced colitis assessed as increase in intestinal epithelial cells in colon at 100 uM, REC for 7 days administered daily by H and E staining based analysis by immunofluorescence based analysis; format: functional, organism-based; settings: time 7.0 day
Mus musculus [8] = experiment: Anti-colitis activity in C57BL/6 mouse model of DSS-induced colitis assessed as increase in colon length at 100 uM, REC for 7 days administered daily; format: functional, organism-based; settings: time 7.0 day
[9] = AUC (all) in Sprague-Dawley rat at 1 mg/kg, iv; format: ADME, organism-based; settings: in vivo
[10] = biological target: T1, P2Y purinoceptor 14 (Homo sapiens) (UniProt Q15391); settings: HEK293, filed as antagonist, dose 100.0 nM
T1 sequence (whole entry): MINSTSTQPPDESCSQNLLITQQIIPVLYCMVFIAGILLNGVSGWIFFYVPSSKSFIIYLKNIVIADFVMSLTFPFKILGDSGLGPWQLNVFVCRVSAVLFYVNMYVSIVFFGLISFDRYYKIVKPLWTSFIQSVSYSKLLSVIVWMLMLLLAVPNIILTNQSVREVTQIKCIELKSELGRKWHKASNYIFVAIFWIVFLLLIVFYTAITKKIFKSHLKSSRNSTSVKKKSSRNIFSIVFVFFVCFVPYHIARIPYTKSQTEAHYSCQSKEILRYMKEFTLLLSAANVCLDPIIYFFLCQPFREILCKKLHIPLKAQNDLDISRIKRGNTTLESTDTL
Description: Antagonist activity at P2Y14R (unknown origin) stably expressed in HEK293 cells assessed as inhibition of forskolin-induced cAMP production at 100 nM by cAMP-Glo assay relative to control

Mus musculus [11] = experiment: Anti-colitis activity in C57BL/6 mouse model of DSS-induced colitis assessed as decrease in rectal bleeding at 100 uM, REC for 7 days administered daily; format: functional, organism-based; settings: time 7.0 day
Mus musculus [12] = experiment: Anti-colitis activity in C57BL/6 mouse model of DSS-induced colitis assessed as decrease in spleen weight index at 100 uM, REC for 7 days administered daily; format: functional, organism-based; settings: time 7.0 day
[13] = Aqueous solubility of compound in SGF at pH 1.2 by spectrometry; format: ADME; settings: SGF, read-out: solubility
[14] = Half life in Sprague-Dawley rat at 1 mg/kg, iv; format: ADME, organism-based; settings: in vivo
[15] = Aqueous solubility of compound in double distilled water at pH 7 by spectrometry; format: physicochemical; settings: buffer
[16] = Oral bioavailability in Sprague-Dawley rat at 5 mg/kg; format: ADME, organism-based; settings: in vivo
[17] = Half life in Sprague-Dawley rat at 5 mg/kg, po; format: ADME, organism-based; settings: in vivo
[18] = Cmax in Sprague-Dawley rat at 5 mg/kg, po; format: ADME, organism-based; settings: in vivo
Mus musculus [19] = experiment: Anti-colitis activity in C57BL/6 mouse model of DSS-induced colitis assessed as decrease in histological damage in colon at 100 uM, REC for 7 days administered daily by H and E staining based analysis; format: functional, organism-based; settings: time 7.0 day
[20] = Aqueous solubility of compound in SIF at pH 6.8 by spectrometry; format: ADME; settings: simulated gi fluid
P2Y purinoceptor 14 = biological target: T2, P2Y purinoceptor 14 (Homo sapiens, UniProt Q15391); experiment: Antagonist activity at P2Y14R (unknown origin) stably expressed in HEK293 cells assessed as inhibition of forskolin-induced cAMP production by cAMP-Glo assay; format: functional, cell-based
T2 sequence (Q15391 whole entry): T1 sequence (whole entry)

[21] = Aqueous solubility of compound in PBS at pH 7.4 by spectrometry; format: physicochemical; settings: buffer

Compound: Cc1ccc(C(=O)Nc2cc(C(=O)O)sc2Oc2ccc(F)cn2)cc1
- Tmax [1]: 15 min
- Activity (Mus musculus [2]): Active
- Stability [3]: Stable
- AUC [4]: 90744 ng·min/mL
- Activity (Mus musculus [5]): Active
- Activity (Mus musculus [6]): Active
- Activity (Mus musculus [7]): Active
- Activity (Mus musculus [8]): Active
- AUC [9]: 27924 ng·min/mL
- inhibition [10]: 130%
- Activity (Mus musculus [11]): Active
- Activity (Mus musculus [12]): Active
- solubility [13]: 0.051 µg/mL (≈ 0.137 µM)
- half-life [14]: 21 min
- solubility [15]: 0.088 µg/mL (≈ 0.236 µM)
- bioavailability [16]: 65%
- half-life [17]: 178 min
- Cmax [18]: 518 ng/mL
- Activity (Mus musculus [19]): Active
- solubility [20]: 0.175 µg/mL (≈ 0.47 µM)
- IC50 (P2Y purinoceptor 14): 0.4 nM
- solubility [21]: 1.995 µg/mL (≈ 5.36 µM)
